In PMC8345035, “Targeted Alpha-Particle Radiotherapy and Immune Checkpoint Inhibitors Induces Cooperative Inhibition on Tumor Growth of Malignant Melanoma” (Cancers, 2021):
Where two headings read alike, the source gives them in different places. Where a SMILES comes first, the peptide text is derived from it. Bridges are numbered along the chain shown (N, C = ends). Triazole bridges read from a SMILES are 1,4-linked. Side-chain parts run from the residue outwards. [ ]: non-standard residue; d: D form. The star is where a group is joined. X1 = NC(=O)CN1CCN(CC(=O)O)CCN(CC(=O)*)CCN(CC(=O)O)CC1; Lys(N3) = [N-]=[N+]=NCCCC[C@H](N)C(=O)O; Nle = CCCC[C@H](N)C(=O)O; Pra = C#CC[C@H](N)C(=O)O; AEEA = NCCOCCOCC(=O)O

Experiments:
[1] = In vivo biodistribution of [^203Pb]VMT01 in B16-F10 melanoma xenograft model; parameters: species or system athymic nude mice; details: athymic nude, mouse, intravenous, 74 KBq, total radioactivity, tail vein; for tissue uptake at 0.5 h: 0.5 h post-injection; for tissue uptake at 1.5 h: 1.5 h post-injection; for tissue uptake at 3 h: 3 h post-injection; for tissue uptake at 6 h: 6 h post-injection; for tissue uptake at 24 h: 24 h post-injection
Experimental: Radiolabeling of VMT01 was carried out according to published methods. Briefly, ^203Pb^2+ was purified on 50 mg Pb-resin (Eichrom Technologies, Lisle, IL, USA) and eluted into reaction vessel using 0.5 M sodium acetate (NaOAc) pH = 6 buffer. The reaction vessel contained 20 nmole VMT01 peptide precursor and 0.29 mL of 0.5 M sodium acetate (NaOAc) pH = 4 buffer to adjust final pH to 5.4. The reaction solution was heated under 85 °C for 30 min. After reactions, free ^203Pb was removed by StrataX C-18 SPE cartridge (Phenomenex, Torrance, CA, USA) and final products were collected in 50% EtOH in saline. Biodistribution of [^203Pb]VMT01 was determined in a B16-F10 murine melanoma xenograft model in athymic nude mice. B16-F10 xenograft was developed by the subcutaneous (SC) injection of 2 × 10^5 B16-F10 cells at the left shoulder in 100 µL 50% Matrigel in complete growth media. Then, 74 KBq of [^203Pb]VMT01 (5.4 pmole) were administered via tail vein injection (2 male and 2 female at each time point) in 100 µL of saline with less than 10% EtOH content. At 0.5, 1.5, 3, 6, and 24 h post-injection, animals were euthanized, and organs of interest were harvested and weighed. Radioactivity in tumor and organs was measured on a Cobra II automated gamma counter. […] The value for 48 h was extrapolated from the last 3 time points (3, 6, and 24 h) of the biodistribution by one phase exponential decay with least squares fitting method (GraphyPrism V7). The average kidney volume was assumed to be 0.33 cm^3 for C57BL6 mice. […] The voxel size of the model was adjusted to have the same kidney volume as the averaged value (0.33 cm^3). The elemental composition of the kidney and the mass density was assumed to be identical as the human adults’ values obtained from the International Commission on Radiation Units and measurements (ICRU) report 46 [52].

metastatic melanoma = test system: metastatic melanoma; parameters: method as in PMID 31562797; details: patients with metastatic melanoma; ref [13]; cited from earlier work
[2] = both sexes, blood, read-out: Biodistribution, Blood, Average
[3] = both sexes, brain, read-out: Biodistribution, Brain, Average
[4] = both sexes, heart, read-out: Biodistribution, Heart, Average
[5] = both sexes, kidney, read-out: Biodistribution, Kidneys, Average
[6] = both sexes, liver, read-out: Biodistribution, Liver, Average
[7] = both sexes, lungs, read-out: Biodistribution, Lungs, Average
[8] = both sexes, muscle, read-out: Biodistribution, Muscle, Average
[9] = both sexes, skin, read-out: Biodistribution, Skin, Average
[10] = both sexes, spleen, read-out: Biodistribution, Spleen, Average
[11] = both sexes, tumor, read-out: Biodistribution, Tumor, Average
[12] = male, testes, read-out: Biodistribution, Testes, Average

CCCC[C@H](NC(C)=O)C(=O)N[C@H]1Cc2cn(nn2)CCCC[C@@H](C(=O)N[C@@H](CCCCNC(=O)COCCOCCNC(=O)CN2CCN(CC(=O)O)CCN(CC(N)=O)CCN(CC(=O)O)CC2)C(N)=O)NC(=O)[C@H](Cc2c[nH]c3ccccc23)NC(=O)[C@H](CCCNC(=N)N)NC(=O)[C@@H](Cc2ccccc2)NC(=O)[C@H](Cc2c[nH]cn2)NC1=O [[^203Pb]VMT01, metal not drawn] (Ac-[Nle][Pra]H[dF]RW[Lys(N3)]K([AEEA-X1])-NH2; triazole 2-7)
tissue uptake at 0.5 h [1, 2]: 1.1 %ID/g | tissue uptake at 1.5 h [1, 2]: 0.08 %ID/g | tissue uptake at 3 h [1, 2]: 0.03 %ID/g | tissue uptake at 6 h [1, 2]: 0.02 %ID/g | tissue uptake at 24 h [1, 2]: 0.01 %ID/g | tissue uptake at 0.5 h [1, 3]: 0.06 %ID/g | tissue uptake at 1.5 h [1, 3]: 0.02 %ID/g | tissue uptake at 3 h [1, 3]: 0.01 %ID/g | tissue uptake at 6 h [1, 3]: 0.01 %ID/g | tissue uptake at 24 h [1, 3]: 0.01 %ID/g | tissue uptake at 0.5 h [1, 4]: 0.66 %ID/g | tissue uptake at 1.5 h [1, 4]: 0.08 %ID/g | tissue uptake at 3 h [1, 4]: 0.05 %ID/g | tissue uptake at 6 h [1, 4]: 0.03 %ID/g | tissue uptake at 24 h [1, 4]: 0.02 %ID/g | tissue uptake at 0.5 h [1, 5]: 12.8 %ID/g | tissue uptake at 1.5 h [1, 5]: 6.1 %ID/g | tissue uptake at 3 h [1, 5]: 6 %ID/g | tissue uptake at 6 h [1, 5]: 5.3 %ID/g | tissue uptake at 24 h [1, 5]: 2.6 %ID/g | tissue uptake at 0.5 h [1, 6]: 0.64 %ID/g | tissue uptake at 1.5 h [1, 6]: 0.43 %ID/g | tissue uptake at 3 h [1, 6]: 0.31 %ID/g | tissue uptake at 6 h [1, 6]: 0.37 %ID/g | tissue uptake at 24 h [1, 6]: 0.22 %ID/g | tissue uptake at 0.5 h [1, 7]: 2.8 %ID/g | tissue uptake at 1.5 h [1, 7]: 2.98 %ID/g | tissue uptake at 3 h [1, 7]: 1.34 %ID/g | tissue uptake at 6 h [1, 7]: 1 %ID/g | tissue uptake at 24 h [1, 7]: 0.2 %ID/g | tissue uptake at 0.5 h [1, 8]: 0.73 %ID/g | tissue uptake at 1.5 h [1, 8]: 0.09 %ID/g | tissue uptake at 3 h [1, 8]: 0.04 %ID/g | tissue uptake at 6 h [1, 8]: 0.03 %ID/g | tissue uptake at 24 h [1, 8]: 0.02 %ID/g | tissue uptake at 0.5 h [1, 9]: 2.23 %ID/g | tissue uptake at 1.5 h [1, 9]: 0.27 %ID/g | tissue uptake at 3 h [1, 9]: 0.15 %ID/g | tissue uptake at 6 h [1, 9]: 0.17 %ID/g | tissue uptake at 24 h [1, 9]: 0.09 %ID/g | tissue uptake at 0.5 h [1, 10]: 0.58 %ID/g | tissue uptake at 1.5 h [1, 10]: 0.17 %ID/g | tissue uptake at 3 h [1, 10]: 0.12 %ID/g | tissue uptake at 6 h [1, 10]: 0.11 %ID/g | tissue uptake at 24 h [1, 10]: 0.09 %ID/g | tissue uptake at 0.5 h [1, 11]: 5.5 %ID/g | tissue uptake at 1.5 h [1, 11]: 8.9 %ID/g | tissue uptake at 3 h [1, 11]: 4.5 %ID/g | tissue uptake at 6 h [1, 11]: 3.8 %ID/g | tissue uptake at 24 h [1, 11]: 1.7 %ID/g | tissue uptake at 0.5 h [1, 12]: 3.23 %ID/g | tissue uptake at 1.5 h [1, 12]: 0.1 %ID/g | tissue uptake at 3 h [1, 12]: 0.04 %ID/g | tissue uptake at 6 h [1, 12]: 0.04 %ID/g | tissue uptake at 24 h [1, 12]: 0.03 %ID/g

ipilimumab: anti-CTLA-4
complete response rate (metastatic melanoma): 6%

nivolumab: anti-PD1
complete response rate (metastatic melanoma): 19%
